# In patent US6884774B2, “Cyclic hexapeptide derivatives” (Fujisawa Pharmaceutical Co. Ltd., priority 2000, dated 2005):
# Starred links: 1 amine or outer side, 2 acyl side, 3 side chain; linkers in the order of their positions; H or OH if unused. Positions of bridges follow the written chain, without caps; N, C: chain ends. Non-standard residues stand in square brackets, D forms with d. Residues, ends and D or L forms follow the SMILES beside them. *: point of attachment. X2 = C[C@H]1CC[C@@H](N2CCN(c3ccc(-c4nnc(-c5ccc(C(=O)*)cc5)s4)cc3)CC2)CC1; hTyr(3R-OH,3'-OSO3H) = N[C@H](C(=O)O)[C@H](O)Cc1ccc(O)c(OS(=O)(=O)O)c1; X3 = COCCCCCOC1CCN(c2ccc(-c3nn4cc(-c5ccc(C(=O)*)cc5)nc4s3)cc2)CC1; Orn(3R-OH,Nδ-CH(CH2OH)2) = N[C@H](C(=O)O)[C@H](O)CCNC(CO)CO; X4 = COCCCCOc1ccc(-c2nn3cc(-c4ccc(C(=O)*)cc4)nc3s2)cc1; Orn(4R-OH) = O=C([C@H](C[C@@H](O)CN[*:3])N[*:1])[*:2]; X1 = COCCCCCCOc1ccc(-c2cc(-c3ccc(C(=O)*)cc3)no2)cc1; Pro(3S-OH,4S-Me) = C[C@H]1CN[C@H](C(=O)O)[C@H]1O; Hyp = O=C(O)[C@@H]1C[C@@H](O)CN1
# Test system: Candida albicans FP-633
# Assay type: cell-based
# Settings: FP-633, 24 h, pH 7.3
# Procedure: In vitro antimicrobial activity of the object compound of Examples 4, 9, 25 and 30 disclosed later was determined by MICs in mouse serum as described below. The MICs in mouse serum were determined by the microdilution method using ICR mouse serum buffered with 20 mM HEPES buffer (pH 7.3) as a test medium. Inoculum suspension of 10^6 cells/ml were prepared by a hemocytometric procedure and diluted to obtain an inoculum size of approximately 1.0×10^3 cells/ml. Microplates were incubated at 37° C. for 24 hours in 5% CO2. The MICs were defined as the lowest concentrations at which no visible growth was observed.
row,SMILES,MIC [µg/mL]
1,"C[C@@H](O)[C@@H]1NC(=O)[C@@H](NC(=O)c2ccc(-c3nnc(-c4ccc(N5CCN([C@H]6CC[C@@H](C)CC6)CC5)cc4)s3)cc2)C[C@@H](O)CNC(=O)[C@@H]2[C@@H](O)[C@@H](C)CN2C(=O)[C@H]([C@H](O)CCNC(CO)CO)NC(=O)[C@H]([C@H](O)Cc2ccc(O)c(OS(=O)(=O)O)c2)NC(=O)[C@@H]2C[C@@H](O)CN2C1=O [Example 9] (X2-[Orn(4R-OH)]T[Hyp][hTyr(3R-OH,3'-OSO3H)][Orn(3R-OH,Nδ-CH(CH2OH)2)][Pro(3S-OH,4S-Me)]; lactam 1-C)",<0.3
2,"COCCCCCCOc1ccc(-c2cc(-c3ccc(C(=O)N[C@H]4C[C@@H](O)CNC(=O)[C@@H]5[C@@H](O)[C@@H](C)CN5C(=O)[C@H]([C@H](O)CCNC(CO)CO)NC(=O)[C@H]([C@H](O)Cc5ccc(O)c(OS(=O)(=O)O)c5)NC(=O)[C@@H]5C[C@@H](O)CN5C(=O)[C@H]([C@@H](C)O)NC4=O)cc3)no2)cc1 [Example 25] (X1-[Orn(4R-OH)]T[Hyp][hTyr(3R-OH,3'-OSO3H)][Orn(3R-OH,Nδ-CH(CH2OH)2)][Pro(3S-OH,4S-Me)]; lactam 1-C)",<0.3
3,"COCCCCOc1ccc(-c2nn3cc(-c4ccc(C(=O)N[C@H]5C[C@@H](O)CNC(=O)[C@@H]6[C@@H](O)[C@@H](C)CN6C(=O)[C@H]([C@H](O)CCNC(CO)CO)NC(=O)[C@H]([C@H](O)Cc6ccc(O)c(OS(=O)(=O)O)c6)NC(=O)[C@@H]6C[C@@H](O)CN6C(=O)[C@H]([C@@H](C)O)NC5=O)cc4)nc3s2)cc1 [Example 30] (X4-[Orn(4R-OH)]T[Hyp][hTyr(3R-OH,3'-OSO3H)][Orn(3R-OH,Nδ-CH(CH2OH)2)][Pro(3S-OH,4S-Me)]; lactam 1-C)",<0.3
4,"COCCCCCOC1CCN(c2ccc(-c3nn4cc(-c5ccc(C(=O)N[C@H]6C[C@@H](O)CNC(=O)[C@@H]7[C@@H](O)[C@@H](C)CN7C(=O)[C@H]([C@H](O)CCNC(CO)CO)NC(=O)[C@H]([C@H](O)Cc7ccc(O)c(OS(=O)(=O)O)c7)NC(=O)[C@@H]7C[C@@H](O)CN7C(=O)[C@H]([C@@H](C)O)NC6=O)cc5)nc4s3)cc2)CC1 [Example 4] (X3-[Orn(4R-OH)]T[Hyp][hTyr(3R-OH,3'-OSO3H)][Orn(3R-OH,Nδ-CH(CH2OH)2)][Pro(3S-OH,4S-Me)]; lactam 1-C)",<0.3
